In experiment [1] the test system is 22Rv1 cells modified to stably express luciferase. Kind of experiment: Luciferase knockdown by siRNA-containing LNPs in 22Rv1 cells stably expressing luciferase. It is filed as cell-based. Particulars: Homo sapiens, siRNA-LNP 50/10/38.5/1.5 mol %, N/P 3, read-out: half maximal effective siRNA concentration (EC50). As for the experimental part: The LNPs contain 50/10/38.5/1.5 mol % of ionizable lipid/DSPC/chol/PEG-DMG (N/P=3) and the siRNA encodes luciferase.
An siRNA targeted against firefly luciferase purchased from Integrated DNA Technologies (IDT, Coralville, IA) was used to assess ability of LNP to knockdown firefly luciferase in a cell line.
LNP formulations containing the ionizable lipids, nor-MC3 or MC3, DSPC, cholesterol, and PEG-DMG were prepared containing siRNA encoding luciferase as described above. The lipid nanoparticles comprise 50/10/38.5/1.5 mol % of ionizable lipid/DSPC/chol/PEG-DMG and the nitrogen-to-phosphorus ratio (N/P) was 3.

Another experiment has as its system FVII gene. Particulars: mice, siRNA formulation; Jayaraman et al., 2012; cited from earlier work.

Values after ≈ are worked out from the molar mass of the structure shown.

`CCCCC/C=C\C/C=C\CCCCCCCC(CCCCCCC/C=C\C/C=C\CCCCC)OC(=O)CCCN(C)C` [nor-MC3, (6Z,9Z,26Z,29Z)-Pentatriaconta-6,9,26,29-tetraen-18-yl 4-(dimethylamino)butanoate]: the EC50 in experiment [1] was determined as 0.164 µg/mL (≈ 0.268 µM). For `CCCCC/C=C\C/C=C\CCCCCCCCC1(CCCCCCCC/C=C\C/C=C\CCCCC)OCC(CCN(C)C)O1` (centres unmarked) [KC2], in the experiment on FVII gene, the ED50 for FVII gene silencing is 0.1 mg/kg.

Source of the values: patent US20240383843A1, “MC3-Type Lipids” (NanoVation Therapeutics Inc., priority 2021, published 2024).
